From the CheMixHub viscosity set
Where “and” joins values, the source holds several entries; their conditions need not be identical. Identical values can stand only once.

Experiments:
[1] = xn = mol fraction of the nth substance listed

C1CCCCCCC1
101 kPa
Conditions | viscosity
298.15 K | 2.25 mPa·s
303 K | 2.007 mPa·s
303.15 K | 2.031 mPa·s
308.15 K | 1.818 mPa·s (2×) and 1.818 mPa·s
313.15 K | 1.649 mPa·s and 1.692 mPa·s

CC(C)=CC(=O)C=C(C)C
Conditions | viscosity [mPa·s]
298.15 K, 101 kPa | 1.394

CC1(C)OCC(CO)O1 (centres undefined)
101 kPa
Conditions | viscosity [mPa·s]
298.15 K | 9.643
308.15 K | 6.834
318.15 K | 5.076

CCN(CC)S(C)(=O)=O
Conditions | viscosity [mPa·s]
303.15 K, 101.33 kPa | 40590

CC(C)CC(C)O (centres undefined)
Conditions | viscosity
298.15 K, 101.33 kPa | 3.823 mPa·s and 3.823 mPa·s

CC(=O)CC(C)(C)O
Conditions | viscosity [mPa·s]
298.15 K, 101 kPa | 2.902

CCCCCCn1cc[n+](C)c1.O=S(=O)([N-]S(=O)(=O)C(F)(F)F)C(F)(F)F
viscosity
Conditions | 293.15 K | 298.15 K | 303.15 K | 308.15 K | 313.15 K | 318.15 K | 323.15 K
100 kPa | 89 mPa·s and 85.15 mPa·s | 65.94 mPa·s | 51.91 mPa·s | 41.36 mPa·s | 33.79 mPa·s | – | –
101 kPa | – | – | 58.3 mPa·s | 50.4 mPa·s | 41.4 mPa·s | 35 mPa·s | 28.8 mPa·s

CS(C)=O
Conditions | viscosity
293.15 K, 100 kPa | 2.11 mPa·s and 2.23 mPa·s and 2.239 mPa·s
298 K, 101.3 kPa | 2.024 mPa·s
298.15 K, 101 kPa | 1.79 mPa·s
298.15 K, 101.3 kPa | 1.944 mPa·s and 1.926 mPa·s
298.15 K, 101.33 kPa | 1.848 mPa·s
299 K, 101 kPa | 3.143 mPa·s
302.4 K, 101 kPa | 3.676 mPa·s
303.15 K, 100 kPa | 1.79 mPa·s
303.15 K, 101.3 kPa | 1.788 mPa·s and 1.788 mPa·s (2×) and 1.788 mPa·s
308.15 K, 100 kPa | 1.63 mPa·s
308.15 K, 101.33 kPa | 1.498 mPa·s
313.15 K, 100 kPa | 1.5 mPa·s
313.15 K, 101.33 kPa | 1.449 mPa·s and 1.619 mPa·s
318.15 K, 101.3 kPa | 1.31 mPa·s and 1.31 mPa·s
318.15 K, 101.33 kPa | 1.317 mPa·s
323.15 K, 101.3 kPa | 1.284 mPa·s
323.15 K, 101.33 kPa | 1.221 mPa·s and 1.433 mPa·s

OC1CCCCC1
viscosity
Conditions | 293.15 K | 298.15 K | 303.15 K | 308 K | 308.15 K | 313.15 K | 318.15 K | 318.16 K | 323.15 K
100 kPa | 83.29 mPa·s | 58.97 mPa·s | 43.42 mPa·s | – | 33.66 mPa·s and 32.39 mPa·s | 25.52 mPa·s and 25.85 mPa·s | 20.14 mPa·s | 19.5 mPa·s | –
101 kPa | – | – | 23.6 mPa·s and 39.55 mPa·s | 27.95 mPa·s | 27.95 mPa·s | – | – | – | 8.89 mPa·s

CCCCCCCO
viscosity
Conditions | 100 kPa | 101 kPa | 101.3 kPa | 101.33 kPa
293.15 K | 7.018 mPa·s | – | 7.079 mPa·s | –
298 K | 5.956 mPa·s | – | – | –
298.15 K | – | – | 5.758 mPa·s | 5.69 mPa·s and 5.652 mPa·s
303 K | 4.778 mPa·s | – | – | –
303.15 K | 5.014 mPa·s | 4.996 mPa·s and 4.783 mPa·s | 4.814 mPa·s and 4.785 mPa·s | –
308.15 K | 4.275 mPa·s | 4.176 mPa·s and 4.691 mPa·s and 4.069 mPa·s | 4.2 mPa·s and 4.051 mPa·s and 4.691 mPa·s | 4.002 mPa·s and 4.045 mPa·s and 4.175 mPa·s
313 K | 3.228 mPa·s | 3.55 mPa·s | – | –
313.15 K | 3.656 mPa·s and 3.702 mPa·s and 3.735 mPa·s | 3.723 mPa·s and 4.598 mPa·s | 3.579 mPa·s | –
318.15 K | 3.407 mPa·s | – | 3.447 mPa·s | –
323 K | 2.529 mPa·s | – | – | –
323.15 K | 2.741 mPa·s and 2.8 mPa·s | – | – | 2.741 mPa·s and 2.741 mPa·s

CCCCN(CCC#N)CCCC
Conditions | viscosity [mPa·s]
303.15 K, 100 kPa | 2.5

CCCCC(=O)OCC
101.33 kPa
Conditions | viscosity [mPa·s]
293.15 K | 0.846
303.15 K | 0.694
313.15 K | 0.629

COP(=O)([O-])OC.C[N+]1(CCO)CCCC1
100 kPa
Conditions | viscosity [mPa·s]
293.15 K | 1452
298.15 K | 980.6
303.15 K | 687.4
308.15 K | 496.1
313.15 K | 366
318.15 K | 272.8
323.15 K | 210.2

CCCCCCCCCC
viscosity
Conditions | 293.15 K | 298.15 K | 303.15 K | 308.15 K | 313.15 K | 318.15 K | 323.15 K
100 kPa | 0.928 mPa·s and 0.918 mPa·s | 0.853 mPa·s and 0.874 mPa·s | 0.807 mPa·s and 0.795 mPa·s (2×) and 0.791 mPa·s | 0.745 mPa·s and 0.744 mPa·s | 0.691 mPa·s and 0.7 mPa·s (2×) and 0.699 mPa·s | 0.66 mPa·s and 0.659 mPa·s | 0.624 mPa·s
101 kPa | – | – | 0.802 mPa·s and 0.803 mPa·s | – | 0.6883 mPa·s | 0.66 mPa·s and 0.6182 mPa·s and 0.6466 mPa·s | 0.6085 mPa·s
101.32 kPa | 0.91 mPa·s | – | 0.785 mPa·s | – | – | – | –
101.33 kPa | 0.91 mPa·s | – | 0.774 mPa·s and 0.793 mPa·s and 0.755 mPa·s | – | 0.673 mPa·s | 0.619 mPa·s | –
103 kPa | – | 0.842 mPa·s | – | 0.727 mPa·s | – | 0.64 mPa·s | –

CC(=O)O.NCCO
viscosity
Conditions | 293.15 K | 298.15 K | 303.15 K | 308.15 K | 313.15 K | 318.15 K | 323.15 K
101 kPa | 5032 mPa·s | 3167 mPa·s | 2044 mPa·s | 1369 mPa·s | 947.7 mPa·s | 661 mPa·s | 477.5 mPa·s
101.3 kPa | 3423 mPa·s | 2300 mPa·s and 2300 mPa·s and 2267 mPa·s | 1502 mPa·s | 1021 mPa·s | 711.1 mPa·s | 506.5 mPa·s | 368.3 mPa·s

CCN(CC)CCO
viscosity
Conditions | 298.15 K | 303.15 K | 313.15 K | 323.15 K
101.3 kPa | – | 3.308 mPa·s | 2.414 mPa·s | 1.466 mPa·s
101.33 kPa | 4.022 mPa·s and 4.01 mPa·s | 3.308 mPa·s | 2.414 mPa·s | –

CC/C=C\CCO
100 kPa
Conditions | viscosity [mPa·s]
293.15 K | 3.336
298.15 K | 2.921
303.15 K | 2.566
308.15 K | 2.266
313.15 K | 2.012
318.15 K | 1.807

C[N+](C)(C)CCC[n+]1ccccc1.N#C[N-]C#N.N#C[N-]C#N
100 kPa
Conditions | viscosity
293.15 K | 2191 mPa·s and 2191 mPa·s
298.15 K | 1306 mPa·s
303.15 K | 830.8 mPa·s and 830.8 mPa·s
308.15 K | 557.7 mPa·s
313.15 K | 386 mPa·s and 386 mPa·s
318.15 K | 280.7 mPa·s
323.15 K | 210.2 mPa·s and 210.2 mPa·s

CCCCC
viscosity
Conditions | 100 kPa | 101 kPa | 101.33 kPa
293.15 K | 0.222 mPa·s | – | –
298.15 K | 0.212 mPa·s | 0.2121 mPa·s and 0.214 mPa·s | 0.223 mPa·s and 0.223 mPa·s and 0.237 mPa·s

CCN(CC)CCO + NCCO
Conditions | viscosity [mPa·s]
[1], 293.15 K, 101 kPa, x2 = 0.9 | 22.75

CCCCCCCCn1cc[n+](C)c1.O=[N+]([O-])[O-] + CCO
Conditions | viscosity [mPa·s]
[1], 293.15 K, 101 kPa, x2 = 0.128 | 464.3

C[N+](C)(C)CCC[n+]1ccccc1.N#C[N-]C#N.N#C[N-]C#N + CCO
viscosity [mPa·s], [1], 100 kPa
Conditions | 293.15 K | 313.15 K | 323.15 K
x1 = 0.7003 | – | – | 75.75
x1 = 0.7998 | 614.5 | 161.5 | 99.22

CCCCC + c1ccccc1
[1], 298.15 K, 101.33 kPa
Conditions | viscosity [mPa·s]
x2 = 0.1622 | 0.241
x2 = 0.3515 | 0.274
x2 = 0.4439 | 0.295
x2 = 0.5608 | 0.328
x2 = 0.6851 | 0.375
x2 = 0.8001 | 0.434
x2 = 0.9056 | 0.505
